According to ChEMBL document CHEMBL1125162, “High-potency dipeptide sweeteners. 2. L-aspartylfuryl-, thienyl-, and imidazolylglycine esters” (J Med Chem, 1990):

Test: Sweetness potency compared to 5-10% sucrose
Assay type: functional

Work on `CC12CCC(C1)C(C)(C)C2OC(=O)C(Cc1cccs1)NC(=O)[C@@H](N)CC(=O)O` (some centres not stated) yielded a Potency of 0.
In the case of `CC1(C)C2CC[C@](C)(C2)[C@@H]1OC(=O)C(NC(=O)[C@@H](N)CC(=O)O)c1ccccc1` (stereo in doubt; 5), the Potency is reported as 3700.
In the case of `CC12CCC(C1)C(C)(C)[C@H]2OC(=O)[C@H](NC(=O)[C@@H](N)CC(=O)O)c1ccco1` (some centres not stated), the Potency is reported as 16500.
For `CC1CCC(C)C1OC(=O)C(NC(=O)[C@@H](N)CC(=O)O)c1ccco1` (some centres not stated), the Potency was 400.
Molecule `CC12CCC(C1)C(C)(C)C2OC(=O)C(NC(=O)[C@@H](N)CC(=O)O)c1ccsc1` (some centres not stated) has a Potency of 2300.
`CC1(C)C2CC[C@](C)(C2)[C@@H]1OC(=O)C(NC(=O)[C@@H](N)CC(=O)O)c1ccccc1` (stereo in doubt; 4) gave a Potency of 1200.
For `COC(=O)C(NC(=O)[C@@H](N)CC(=O)O)C(=O)O[C@@H]1C(C)(C)C2CC[C@]1(C)C2` (stereo in doubt; 2), the Potency was 30000.
Molecule `CC12CCC(C1)C(C)(C)C2OC(=O)C(NC(=O)[C@@H](N)CC(=O)O)c1cccs1` (some centres not stated) has a Potency of 2000.
With `CC12CCC(C1)C(C)(C)C2OC(=O)C(NC(=O)[C@@H](N)CC(=O)O)C1CCCO1` (some centres not stated) the Potency was 0.
For `CC12CCC(C1)C(C)(C)C2OC(=O)C(NC(=O)[C@@H](N)CC(=O)O)c1c[nH]cn1` (some centres not stated), the Potency was 350.
In the case of `CC12CCC(C1)C(C)(C)[C@@H]2OC(=O)C(NC(=O)[C@@H](N)CC(=O)O)c1ccco1` (some centres not stated), the Potency is reported as 630.
In the case of `COC(=O)C(NC(=O)[C@@H](N)CC(=O)O)C(=O)O[C@@H]1C(C)(C)C2CC[C@]1(C)C2` (stereo in doubt; 3), the Potency is reported as 50000.
